Results as given in PubChem BioAssay AID1919001 (Molecular Pharmacology Branch, DTP, NCI, 2023).

System: 699152-130-R-J1-PDC complex spheroid growth
Assay: Anticancer human tumor 699152-130-R-J1-PDC patient-derived pancreatic carcinoma cell line growth inhibition [AhR]
Conditions: for IC50: curve of first compound; for viability, T/C: stronger effect = lower value
How it was run: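 Complex tumor spheroids co-cultured with HUVEC and human MSC stroma; AhR antagonists tested in combination with standard-of-care and investigational agents. Top concentration at or near clinical Cmax (else 10 microM), half-log dilutions; growth expressed as percent test/control.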

[1] = second compound 0.1 µM, first compound 0.0316 µM
[2] = second compound 0.1 µM, first compound 0.1 µM
[3] = second compound 0.1 µM, first compound 0.316 µM
[4] = second compound 0.1 µM, first compound 1 µM
[5] = second compound 0.316 µM, first compound 0.0316 µM
[6] = second compound 0.316 µM, first compound 0.1 µM
[7] = second compound 0.316 µM, first compound 0.316 µM
[8] = second compound 0.316 µM, first compound 1 µM
[9] = second compound 1 µM, first compound 0.0316 µM
[10] = second compound 1 µM, first compound 0.1 µM
[11] = second compound 1 µM, first compound 0.316 µM
[12] = second compound 1 µM, first compound 1 µM
[13] = second compound 3.16 µM, first compound 0.0316 µM
[14] = second compound 3.16 µM, first compound 0.1 µM
[15] = second compound 3.16 µM, first compound 0.316 µM
[16] = second compound 3.16 µM, first compound 1 µM
[17] = second compound 10 µM, first compound 0.0316 µM
[18] = second compound 10 µM, first compound 0.1 µM
[19] = second compound 10 µM, first compound 0.316 µM
[20] = second compound 10 µM, first compound 1 µM
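Note: compound exposure lasted 7 days after spheroids had grown for 3 days.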

SMILES | IC50 (second compound 0.1 µM) [µM] | IC50 (second compound 0.316 µM) [µM] | IC50 (second compound 1 µM) [µM] | IC50 (second compound 3.16 µM) [µM] | IC50 (second compound 10 µM) [µM] | viability, T/C [1] [%] | viability, T/C [2] [%] | viability, T/C [3] [%] | viability, T/C [4] [%] | viability, T/C [5] [%] | viability, T/C [6] [%] | viability, T/C [7] [%] | viability, T/C [8] [%] | viability, T/C [9] [%] | viability, T/C [10] [%] | viability, T/C [11] [%] | viability, T/C [12] [%] | viability, T/C [13] [%] | viability, T/C [14] [%] | viability, T/C [15] [%] | also measured
CC(C)c1c(-c2ccccc2)nc2c(C#N)c[nH]n2c1=O + Cc1ccccc1N=Nc1ccc(NC(=O)c2ccnn2C)c(C)c1 | > 10 | > 10 | > 10 | > 10 | > 10 | 104 | 81.7 | 89.5 | 86.4 | 94.6 | 86.2 | 82.6 | 82.5 | 83.3 | 93 | 87.7 | 99.1 | 96 | 102 | 103 | viability, T/C (second compound 0.1 µM, first compound 3.16 µM): 79.6%; viability, T/C (second compound 0.1 µM, first compound 10 µM): 92.1%; viability, T/C (second compound 0.316 µM, first compound 3.16 µM): 84.6%; viability, T/C (second compound 0.316 µM, first compound 10 µM): 84.6%; viability, T/C (second compound 1 µM, first compound 3.16 µM): 86.7%; viability, T/C (second compound 1 µM, first compound 10 µM): 90.8%; viability, T/C [16]: 82.5%; viability, T/C (second compound 3.16 µM, first compound 3.16 µM): 98.8%; viability, T/C (second compound 3.16 µM, first compound 10 µM): 93.5%; viability, T/C [17]: 99.7%; viability, T/C [18]: 96.6%; viability, T/C [19]: 103%; viability, T/C [20]: 102%; viability, T/C (second compound 10 µM, first compound 3.16 µM): 106%; viability, T/C (second compound 10 µM, first compound 10 µM): 103%
CC1COCCN1c1cc(-c2ccnn2C)c2ccnc(-c3ccn[nH]3)c2n1 (stereo not given) + Cc1ccccc1N=Nc1ccc(NC(=O)c2ccnn2C)c(C)c1 | > 1 | > 1 | > 1 | > 1 | > 1 | 94.6 | 84.1 | 83.3 | 62.6 | 101 | 82.7 | 68.3 | 61.9 | 101 | 93.5 | 79.5 | 66.9 | 101 | 89.3 | 72.1 | viability, T/C (second compound 0.1 µM, first compound 0.00316 µM): 105%; viability, T/C (second compound 0.1 µM, first compound 0.01 µM): 100%; viability, T/C (second compound 0.316 µM, first compound 0.00316 µM): 87.8%; viability, T/C (second compound 0.316 µM, first compound 0.01 µM): 96.9%; viability, T/C (second compound 1 µM, first compound 0.00316 µM): 99.8%; viability, T/C (second compound 1 µM, first compound 0.01 µM): 110%; viability, T/C (second compound 3.16 µM, first compound 0.00316 µM): 105%; viability, T/C (second compound 3.16 µM, first compound 0.01 µM): 110%; viability, T/C [16]: 60.1%; viability, T/C (second compound 10 µM, first compound 0.00316 µM): 119%; viability, T/C (second compound 10 µM, first compound 0.01 µM): 128%; viability, T/C [17]: 103%; viability, T/C [18]: 116%; viability, T/C [19]: 80.8%; viability, T/C [20]: 65.9%
